According to patent US20090253794A1, “Fibroblast Activator, Collagen Production Promoter, Collagen Contraction Promoter, Hyaluronic Acid Production Promoter, ATP Production Promoter, Melanin Formation Inhibitor, and Agent for External Application to the Skin” (priority 2005, published 2009):

How the values were obtained:
normal human fibroblasts = test: hyaluronic acid production promoting effect and cell count; assay type: cell-based; details: 72 hr; for number of cells: negative control 5.4 × 10^5; for amount of hyaluronic acid produced: negative control = 100, n=3 average
Experimental: The number of cells of normal human fibroblasts was adjusted to 5.0×10^4 cells/mL in Medium 106S medium containing 2% FBS, and plated on a 24 well plate by 1.0 mL. The cell was cultured under an atmosphere of 95% (V/V) air-5% (V/V) carbon dioxide gas at 37° C. for 24 hr, and then Medium 106S medium (free of FBS) containing various concentrations of conagenin was added. After further culture for 72 hr, the culture supernatant was collected, and the concentration of hyaluronic acid released into the medium was measured by an inhibitory method (hyaluronic acid measurement kit, manufactured by SEIKAGAKU CORPORATION) utilizing a hyaluronic acid-binding protein. The method of operation was as indicated in the attached explanation insert. The results obtained using PBS as a negative control instead of conagenin was taken as 100 and the amount ratio of hyaluronic acid in the medium was calculated.

B16 melanoma cells = test: melanin formation suppression test, visual whitening and cell mass volume; assay type: cell-based, mouse; parameters: key to level of whitening: whitening high→++; whitening moderate→+; somewhat whitened→+−; no whitening→−; details: 5 days; for level of whitening: visual evaluation; for change in cell mass volume: visual, cytotoxicity index
Experimental: A melanin formation suppression test was performed as follows using mouse melanoma cells. First, 2×10^4 B16 melanoma cells were plated in a 35 mm diameter dish containing Eagle's minimum nutrition medium (3 ml) supplemented with 10% (v/v) fetal bovine serum, and cultured in a carbon dioxide incubator adjusted to 5% (v/v) carbon dioxide gas at 37° C. for about 24 hr. Then, pure water or a sample dissolved in pure water was added thereto to a final concentration of 0.1 mM, 1.0 mM or 10 mM. As a positive control, kojic acid (manufactured by Sigma Ltd.) was added to the same concentration. The cells were cultured for 5 more days under the same conditions, treated with trypsin, and centrifuged to collect the cells in a 1.5 ml Eppendorf. The level of whitening of the cells was visually evaluated, and indicated: whitening high→++; whitening moderate→+; somewhat whitened→+−; no whitening→−. Simultaneously, changes in the cell mass volume was visually evaluated and used as a cytotoxicity index.

human normal melanocytes = test: melanin formation suppression test in human melanocytes (L-DOPA, absorbance 495 nm); assay type: cell-based; details: 5 days, relative value, without addition of sample = 100
Experimental: A melanin formation suppression test was performed using human melanocytes (manufactured by KURABO INDUSTRIES LTD.). That is, human normal melanocytes amplified in Medium 254 medium (human melanocyte medium added with HMGS, manufactured by KURABO INDUSTRIES LTD.) was added to a 96 well plate at 10^4 cells per well, and cultured in a carbon dioxide incubator adjusted to 5% (v/v) carbon dioxide gas at 37° C. for about 24 hr. Then, pure water or a sample (conagenin) dissolved in pure water was added thereto to a final concentration of 0.1 mM, 1.0 mM or 10 mM. As a positive control, kojic acid (manufactured by Sigma Ltd.) was added to the same concentration. The cells were cultured for 5 more days under the same conditions. To the recovered cells was added 50 μl of cell suspension (PBS buffer containing Triton X-100 at 0.1% (v/v)). After thorough suspending, the suspension was stood at 4° C. for 1 hr. Thereto was added 50 μl of 10 mM L-DOPA (manufactured by Nacalai Tesque), and the mixture was incubated at 37° C. for 1 hr. Thereafter, the absorbance at 495 nm was measured by a plate reader (multiscanplus MKII, manufactured by Japan Flow Laboratory), and the melanin formation amount was measured (shown in a relative value to the value without addition of sample as 100).

[1] = test system: mouse B16 melanoma strain; test: melanin formation amount after L-DOPA incubation (absorbance 495 nm), cells of Example 7; assay type: cell-based; details: FIG. 1; cells of Example 7 (0.1, 1.0, 10 mM); absorbance at 495 nm
Experimental: To the cells recovered in Example 7 was added 100 μl of cell suspension (PBS buffer containing Triton X-100 at 0.1% (v/v)). After thorough suspending, the suspension was stood at 4° C. for 1 hr. Thereto was added 100 μl of 10 mM L-DOPA (manufactured by Nacalai Tesque), and the mixture was incubated at 37° C. for 1 hr. Thereafter, the absorbance at 495 nm was measured by a plate reader (multiscanplus MKII, manufactured by Japan Flow Laboratory), and the melanin formation amount was measured.

[2] = test system: normal human skin fibroblasts; test: type I collagen production promoting effect (PIP in culture supernatant) and cell count; assay type: cell-based; details: for produced amount of collagen: 24 hr, relative value, negative control = 100, n=3 average; for number of cells: cells per well, counted visually after trypsin, negative control 4.9 × 10^5
Experimental: Normal human skin fibroblasts (manufactured by KURABO INDUSTRIES LTD.) were added to a 24 well plate at 5×10^4 cells per well. Using Medium 106S medium (manufactured by KURABO INDUSTRIES LTD.) containing 2% FBS, the cells were cultured under an atmosphere of 95% (V/V) air-5% (V/V) carbon dioxide gas at 37° C. for 24 hr. The medium was changed to Medium 106S medium (free of FBS) containing each sample, and the cells were cultured under the same conditions for 24 hr. After the completion of culture, the culture supernatant was taken to evaluate the type I collagen biosynthesizability and, to count the cells, the cells were harvested by a trypsin treatment. The samples used were two kinds of conagenin contents of 0.1 μM, 1 μm, 10 μM, 100 μM, 1 mM (final concentration), and magnesium L-ascorbyl phosphate (manufactured by Wako Pure Chemical Industries, Ltd., final concentration 100 μM) as a positive control (one added with PBS instead of the sample was used as a negative control).

`C[C@@H]([C@@H](C)O)[C@@H](O)C(=O)N[C@@](C)(CO)C(=O)O` [conagenin, (2S)—N-[(2R,3S,4R)2,4-dihydroxy-3-methyl-pentanoyl]-2-methylserine] was tested, and the number of cells (normal human fibroblasts; 1 μM) was 5.3 × 10^5, the “amount of hyaluronic acid produced” value (normal human fibroblasts; 1 μM) was 108 and the number of cells (normal human fibroblasts; 10 μM) was 5.5 × 10^5. For the same compound, the “amount of hyaluronic acid produced” value (normal human fibroblasts; 10 μM) was 120, the number of cells (normal human fibroblasts; 100 μM) was 5.3 × 10^5 and the “amount of hyaluronic acid produced” value (normal human fibroblasts; 100 μM) was 132. The number of cells (normal human fibroblasts; 1 mM) was 5.1 × 10^5, the “amount of hyaluronic acid produced” value (normal human fibroblasts; 1 mM) was 147 and the number of cells (normal human fibroblasts; 5 mM) was 4.0 × 10^5. For the same compound, the “amount of hyaluronic acid produced” value (normal human fibroblasts; 5 mM) was 199, the level of whitening (B16 melanoma cells; 0.1 mM) was “+” and the “change in cell mass volume” value (B16 melanoma cells; 0.1 mM) was “none”. The level of whitening (B16 melanoma cells; 1 mM) was “++”, the “change in cell mass volume” value (B16 melanoma cells; 1 mM) was “none” and the level of whitening (B16 melanoma cells; 10 mM) was “++”. The “change in cell mass volume” value (B16 melanoma cells; 10 mM) was “none”, the melanin formation amount (human normal melanocytes; 100 μM) was 92 and the melanin formation amount (human normal melanocytes; 1 mM) was 66. The melanin formation amount (human normal melanocytes; 10 mM) was 17, the melanin formation amount [1] was “suppresses melanin formation at a low concentration” and the “produced amount of collagen” value ([2]; 0.1 μM) was 196. The number of cells ([2]; 0.1 μM) was 5.1 × 10^5, the “produced amount of collagen” value ([2]; 1 μM) was 197 and the number of cells ([2]; 1 μM) was 5.1 × 10^5. For the same compound, the “produced amount of collagen” value ([2]; 10 μM) was 204, the number of cells ([2]; 10 μM) was 5.2 × 10^5 and the “produced amount of collagen” value ([2]; 100 μM) was 208. The number of cells ([2]; 100 μM) was 4.8 × 10^5, the “produced amount of collagen” value ([2]; 1 mM) was 202 and the number of cells ([2]; 1 mM) was 4.7 × 10^5.
